{"source": "patent US20100281567A1", "about": "“TRANSGENIC PLANTS HAVING ALTERED LEVELS OF AROMATIC AMINO ACIDS AND METABOLITES DERIVED THEREFROM” (priority 2007, published 2010)", "type_in_all_cases": "in vivo, Arabidopsis thaliana", "key": {"Arabidopsis plants [1]": {"tested_on": "Arabidopsis plants", "assay": "Effect of the tryptophan analog 5-methyl tryptophan on growth of transgenic plants", "settings": "plants p17, p9 and p5 expressing 35S:PRO-TP-PheA*-3HA; 100 μM, three weeks", "experimental": "FIG. 10 illustrates the effect of tryptophan analog on transgenic plants expressing: (i) the 35S:PRO-TP-PheA*-3HA gene (p5, p9; p17); (ii) dominant mutation, resistant to tryptophan analogs due to high levels of tryptophan (5× normal) and anthranilate synthase (2× normal), amt1-1; (iii) control plants expressing an empty Ti vector (con); and (iv) wild type Arabidopsis Colombia ecotype (col). FIG. 10A: Photograph of plants growing for three weeks on zero and 100 μM 5-methyl tryptophan (5MT). FIG. 10B: Quantitative analysis of the number of seedlings whose growth was arrested by 5MT.\nTo evaluate the biosynthesis level of tryptophan, the effects of tryptophan analog on the transgenic plants of the present invention and on positive-control and control plants were examined. Plants used were as follows: i) plants of the present invention transformed with the 35S:PRO-TP-PheA*-3HA construct; (ii) positive-control transgenic plants having the dominant mutation amt1-1, which are resistant to tryptophan analogs due to high levels of tryptophan (5× normal) and anthranilate synthase (2× normal), the first enzyme of tryptophan biosynthesis; (iii) control plants expressing an empty Ti vector; and (iv) wild type Arabidopsis Colombia ecotype (col). Plants were grown for three weeks on zero and 100 μM 5-methyl tryptophan (5MT)."}, "Arabidopsis plants [2]": {"tested_on": "Arabidopsis plants", "assay": "Effect of the HPPD inhibitor Isoxaflutole on growth of control and transgenic Arabidopsis plants", "settings": "10 ppb Isoxaflutole in MS medium", "experimental": "Plants were grown on MS medium in the presence of 10 ppb Isoxaflutole. […] FIG. 9A: Chlorophyll content. FIG. 9B: Photograph of the plants.\nWestern blot analysis was performed with anti-HA tag antibodies, in order to identify the mutated plants which are translated the chemeric gene (Stepansky A and Galili G 2003 Plant Physiol 133, 1407-1415). Additionally, T2 generation plants were examined and lines with a single insertion gene were selected based on 3:1 genetic segregation. For testing the growth of the transgenic plants producing elevated concentrations of the compounds of the invention, homozygous PheA* plants were germinated on regular Nitch medium. The 4-Hydroxy-phenylpyruvate dioxygenase (HPPD) inhibitor Isoxaflutole was used as previously described (Rippert P et al. 2004 Plant Physiol., 134:92-100).\nTyrosine is catabolized in plants to a number of metabolites including hydroxyl-phenylpyruvate (p-HPP), homogentistic acid (HGA) and tocopherols. One of the enzymes in the Tyr catabolism pathways is 4-Hydroxy-phenylpyruvate dioxygenase (HPPD), which catalyzes the conversion of p-HPP to HGA. HGA is derived exclusively from the catabolism of tyrosine and is also a substrate for a number of other metabolites, such as tocopherols. […]"}, "Arabidopsis plants [3]": {"tested_on": "Arabidopsis plants", "assay": "Sensitivity of germination to external application of phenylalanine", "settings": "PheA* genotypes compared to control genotype; 4 mM phenylalanine in medium", "experimental": "FIG. 11A: Morphological phenotype of the control genotype (a, e) and the PheA* expressing genotypes p5 (b, f), p9 (c, g) and p17 (d, h). Plants were at the age of 10 days (a-d) and two months (e-f). FIG. 11B: Seeds of the above control and transgenic plants were germinated on media lacking (left) or containing (right) 4 mM Phe.\nAmino acids are generally toxic to plants when added externally at relatively high concentrations. We therefore also used this trait to further confirm that the PheA* plants overproduce phenylalanine, by testing for sensitivity to external application of phenylalanine."}}, "data": [{"smiles": "Cc1ccc2[nH]cc(C[C@H](N)C(=O)O)c2c1", "note": "[5MT, 5-methyl tryptophan]", "values": [{"measurement": "growth of plants", "setting": "Arabidopsis plants [1]", "result": "strongly inhibited"}]}, {"smiles": "CS(=O)(=O)c1cc(C(F)(F)F)ccc1C(=O)c1cnoc1C1CC1", "note": "[Isoxaflutole]", "values": [{"measurement": "chlorotic symptoms", "setting": "Arabidopsis plants [2]; control plants expressing an empty Ti plasmid", "result": "developed chlorotic symptoms"}, {"measurement": "chlorotic symptoms", "setting": "Arabidopsis plants [2]; transgenic plants expressing 35S:PRO-TP-PheA*-3HA", "result": "remained green"}]}, {"smiles": "N[C@@H](Cc1ccccc1)C(=O)O", "note": "[phenylalanine]", "values": [{"measurement": "germination", "setting": "Arabidopsis plants [3]", "result": "significantly inhibited"}]}]}
